In data set [1] the test system is interferon response.
In data set [2] the test system is interferon response. The following applies: pretreatment of the cells; cited from earlier work.

*1 amine or outer side, *2 acyl side, *3 side chain or, on linkers, in order; H or OH if unused. Where a SMILES comes first, the peptide text is derived from it. Bridges are numbered along the chain shown (N, C = ends). Roman numbers before positions name the chains, in order. [ ]: non-standard residue; d: D form. Actinocin(9to1) = Cc1c2oc3c(C)ccc(C(=O)[*:1])c3nc-2c(C(=O)[*:2])c(N)c1=O; NMeV = CN[C@H](C(=O)O)C(C)C; Sar = CNCC(=O)O

For `Cc1c2oc3c(C)ccc(C(=O)N[C@@H]4C(=O)N[C@H](C(C)C)C(=O)N5CCC[C@H]5C(=O)N(C)CC(=O)N(C)[C@@H](C(C)C)C(=O)O[C@@H]4C)c3nc-2c(C(=O)N[C@@H]2C(=O)N[C@H](C(C)C)C(=O)N3CCC[C@H]3C(=O)N(C)CC(=O)N(C)[C@@H](C(C)C)C(=O)O[C@@H]2C)c(N)c1=O` [actinomycin D] (I: T[dV]P[Sar][NMeV] / II: T[dV]P[Sar][NMeV]; ester I:1-I:C, II:1-II:C; linker I:N-II:N via Actinocin(9to1)), in the data set on interferon response [1], the “effect on virus yield relative to control cultures” value is on record as “substantial increase in virus yield” and the “toxicity to the cells” value is on record as “relatively toxic to the cells”. For the same compound, the “effect on interferon response” value in the data set with interferon response [2] was “blocks the interferon response”.

The values are drawn from EP1002054B1, “PROCESS FOR THE PRODUCTION OF VIRUS IN CELL CULTURES” (priority 1998, dated 1999).
